Read-outs that look alike come from different tables or passages of the source.
Assay: Pharmacokinetic study in mice, plasma and brain structures, LC/MS/MS
Format: in vivo, Swiss albino mice
Conditions: Swiss albino, mouse, ip, 1.25 mg/kg i.p.
Protocol: Blood samples from the Swiss albino mice were collected at 0 (pre-dose), 5, 15, 30, 60, 120, 240 and 480 min after a compound administration. The blood samples and brain structures were collected under general anesthesia induced by i.p. injection of 50 mg/kg ketamine plus 8 mg/kg xylazine. The blood samples were taken into heparinized tubes, immediately centrifuged at 1000 × g for 10 min, and plasma was collected. The plasma samples and brain structures were immediately frozen at -30°C and -80°C, respectively.
The plasma and tissue sample pretreatment procedure involved acetonitrile precipitation. A 5 μL aliquot of the IS working solution (100 ng/mL) was added to 50 μL of the collected mouse plasma sample, which was then vortex-mixed for 10 seconds. Thereafter, 200 μL of acetonitrile was added, vortexed during 20 min, and then centrifuged (1000 × g, 10 min). The supernatant (100 μL) was then transferred to insert placed in an autosampler vial, and a 10 μL volume of this was injected onto the HPLC column. Tissue samples were thawed before use, and whole hippocampus, striatum and frontal cortex were weighted and placed in a glass mortar and pestle tissue grinder and homogenized with an appropriate amount of phosphate buffer (pH 7.4) in 1:5 ratio. Afterward, 50 μL of tissue homogenates were transferred to new Eppendorf tubes and spiked with 5 μL of the internal standard working solution. All samples were stored on ice during the preparation process. This was followed by procedures like those described above.
The LC/ESI-MS/MS experiments were performed on an Applied Biosystems/MDS Sciex (Concord, Ontario, Canada) API 2000 triple quadrupole mass spectrometer equipped with an electrospray (ESI) ionization interface. This instrument was coupled to an Agilent 1100 (Agilent Technologies, Waldbronn, Germany) LC system. Data acquisition and processing were accomplished using Sciex Analyst 1.4.2 data collection and integration software.
An XBridge C18 (2.1 x 30 mm, 3.5 μm) analytical column (Waters, Milford, Massachusetts, USA) was used for compound separation. The temperatures of the column thermostat and the autosampler were set at 25°C and 10°C, respectively. The mobile phase consisted of a mixture of acetonitrile with addition of 0.1% formic acid (solvent A) and water with addition of 0.1% formic acid (solvent B) and was set at a flow rate of 0.6 mL/min. Starting amount of solvent A is 10%, isocratic elution from 0 to 3 min, and then gradient up to 90% of solvent A, and maintained to 10 min, and then gradient down to 10% of solvent A, and maintained to 15 min.
The ion source parameters were as follows: ion spray voltage: 5500 V; nebulizer gas (gas 1): 20 psi; turbo gas (gas 2): 25 psi; temperature of the heated nebulizer: 400°C; curtain gas: 40 psi; collision gas: 6 psi. Mass spectra were acquired by SRM with precursor/predominant product ion transitions for each analyte. The mass spectral Q1→Q3 transitions monitored for AZ-853, AZ-861 and for IS (nebivolol), were m/z 453.9→235.1; 504.3→285.1 and 406.2→151.1, respectively. The peak widths of precursor and product ions were set to 0.7 full width half-height. Quantification was done via peak area ratio.
Pharmacokinetic parameters were calculated by a non-compartmental approach from the average concentration values, using Phoenix WinNonlin software (Certara, Princeton, NJ 08540 USA). First order elimination rate constant (λz) was calculated by linear regression of time versus log concentration. Next, the area under the mean serum and tissue concentration versus time curve (AUC0→t) was estimated using the log-linear trapezoidal rule (1), where Ci is the plasma concentration measured at t1.
AUC0→t=∑i=1n((Ci+Ci+1)/2)∙(ti+1−ti). (1)
Area under the first-moment curve (AUMC0→t) was estimated by calculation of the total area under the first-moment curve using the Eq (2), where Ci is the plasma concentration measured at t1. AUMC0→t=∑i=1n((ti∙Ci+ti+1∙Ci+1)/2)∙(ti+1−ti). […]

[1] = hippocampus, 1.25 mg/kg, read-out: Concentration, hippocampus (individual animals)
[2] = hippocampus, 1.25 mg/kg, read-out: Concentration, hippocampus (Mean)
[3] = plasma, 1.25 mg/kg, read-out: Concentration, plasma (Mean)
[4] = plasma, 1.25 mg/kg, read-out: Concentration, plasma (individual animals)
[5] = striatum, 1.25 mg/kg, read-out: Concentration, striatum (Mean)
[6] = striatum, 1.25 mg/kg, read-out: Concentration, striatum (individual animals)

Cn1c(=O)c2c(nc3n(CCCCN4CCN(c5cccc(C(F)(F)F)c5)CC4)ccn23)n(C)c1=O [AZ-861, 1,3-dimethyl-8-(4-(4-(3-(trifluoromethyl)phenyl)piperazin-1-yl)butyl)-1H-imidazo[2,1-f]purine-2,4(3H,8H)-dione]
concentration at 5 min [1]: 289 ng/mL | concentration at 15 min [2]: 307 ng/mL | concentration at 15 min [1]: 264 ng/mL | concentration at 30 min [2]: 253 ng/mL | concentration at 30 min [1]: 245 ng/mL | concentration at 60 min [2]: 96.9 ng/mL | concentration at 60 min [1]: 101 ng/mL | concentration at 120 min [2]: 54.3 ng/mL | concentration at 120 min [1]: 60.2 ng/mL | concentration at 240 min [2]: 19.6 ng/mL | concentration at 240 min [1]: 18.2 ng/mL | concentration at 480 min [2]: 15.8 ng/mL | concentration at 480 min [1]: 15.8 ng/mL | Cmax (hippocampus, 1.25 mg/kg, read-out: Cmax, hippocampus): 308 ng/g | Tmax (hippocampus, 1.25 mg/kg, read-out: tmax, hippocampus (converted)): 15 min | CL/F (plasma): 590 mL/min/kg | AUC(0-t) (plasma, read-out: AUC0→t, plasma (converted)): 34.5 ng·h/mL | MRT (plasma, read-out: MRT, plasma (converted)): 52.3 min | concentration at 5 min [3]: 59.8 ng/mL | concentration at 15 min [3]: 36.3 ng/mL | concentration at 15 min [4]: 26.4 ng/mL | concentration at 30 min [3]: 24.8 ng/mL | concentration at 60 min [3]: 5.84 ng/mL | concentration at 60 min [4]: 7.37 ng/mL | concentration at 120 min [3]: 2.58 ng/mL | concentration at 120 min [4]: 1.84 ng/mL | concentration at 240 min [3]: 0.56 ng/mL | concentration at 480 min [3]: 0.27 ng/mL | concentration at 480 min [4]: 0.25 ng/mL | Vd/F (plasma, 1.25 mg/kg, plasma, read-out: Vd/F): > 84 L/kg | Cmax (plasma, 1.25 mg/kg, read-out: Cmax, plasma): 59.6 ng/mL | Tmax (plasma, 1.25 mg/kg, read-out: tmax, plasma): ≤ 5 min | Kp (striatum, ratio of AUC values, read-out: Brain structure-to-plasma concentration ratio, striatum (S/P)): 8.97 | AUC(0-t) (striatum, read-out: AUC0→t, striatum (converted)): 309 ng·h/mL | MRT (striatum, read-out: MRT, striatum (converted)): 56.9 min | concentration at 5 min [5]: 181 ng/mL | concentration at 5 min [6]: 190 ng/mL | concentration at 15 min [5]: 334 ng/mL | concentration at 15 min [6]: 377 ng/mL | concentration at 30 min [5]: 305 ng/mL | concentration at 30 min [6]: 341 ng/mL | concentration at 60 min [5]: 58.1 ng/mL | concentration at 60 min [6]: 61.6 ng/mL | concentration at 120 min [5]: 25.6 ng/mL | concentration at 120 min [6]: 28.4 ng/mL | concentration at 240 min [5]: 5.89 ng/mL | concentration at 240 min [6]: 6.95 ng/mL | concentration at 480 min [5]: 1.86 ng/mL | concentration at 480 min [6]: 1.65 ng/mL | Cmax (striatum, 1.25 mg/kg, read-out: Cmax, striatum): 333 ng/g | Tmax (striatum, 1.25 mg/kg, read-out: tmax, striatum (converted)): 15 min
